The molecules below were run against T1, USP28 (His-tagged USP28-FL-mammalian) (Homo sapiens, UniProt Q96RU2) (assay: Ubiquitin-Rhodamine 110 Assay for USP28 Activity, Example A-1(a)). Settings: Ub-Rh110 assay, Example A-1(a); read-out: USP28 A-1(a) IC50 range.
T1 construct: Expression of USP28 (1-1077)-TEV-6*His (pTT5 vector); made in house; host or cells: Expi293f cells (pTT5 vector)
T1 sequence (Q96RU2 1-1077): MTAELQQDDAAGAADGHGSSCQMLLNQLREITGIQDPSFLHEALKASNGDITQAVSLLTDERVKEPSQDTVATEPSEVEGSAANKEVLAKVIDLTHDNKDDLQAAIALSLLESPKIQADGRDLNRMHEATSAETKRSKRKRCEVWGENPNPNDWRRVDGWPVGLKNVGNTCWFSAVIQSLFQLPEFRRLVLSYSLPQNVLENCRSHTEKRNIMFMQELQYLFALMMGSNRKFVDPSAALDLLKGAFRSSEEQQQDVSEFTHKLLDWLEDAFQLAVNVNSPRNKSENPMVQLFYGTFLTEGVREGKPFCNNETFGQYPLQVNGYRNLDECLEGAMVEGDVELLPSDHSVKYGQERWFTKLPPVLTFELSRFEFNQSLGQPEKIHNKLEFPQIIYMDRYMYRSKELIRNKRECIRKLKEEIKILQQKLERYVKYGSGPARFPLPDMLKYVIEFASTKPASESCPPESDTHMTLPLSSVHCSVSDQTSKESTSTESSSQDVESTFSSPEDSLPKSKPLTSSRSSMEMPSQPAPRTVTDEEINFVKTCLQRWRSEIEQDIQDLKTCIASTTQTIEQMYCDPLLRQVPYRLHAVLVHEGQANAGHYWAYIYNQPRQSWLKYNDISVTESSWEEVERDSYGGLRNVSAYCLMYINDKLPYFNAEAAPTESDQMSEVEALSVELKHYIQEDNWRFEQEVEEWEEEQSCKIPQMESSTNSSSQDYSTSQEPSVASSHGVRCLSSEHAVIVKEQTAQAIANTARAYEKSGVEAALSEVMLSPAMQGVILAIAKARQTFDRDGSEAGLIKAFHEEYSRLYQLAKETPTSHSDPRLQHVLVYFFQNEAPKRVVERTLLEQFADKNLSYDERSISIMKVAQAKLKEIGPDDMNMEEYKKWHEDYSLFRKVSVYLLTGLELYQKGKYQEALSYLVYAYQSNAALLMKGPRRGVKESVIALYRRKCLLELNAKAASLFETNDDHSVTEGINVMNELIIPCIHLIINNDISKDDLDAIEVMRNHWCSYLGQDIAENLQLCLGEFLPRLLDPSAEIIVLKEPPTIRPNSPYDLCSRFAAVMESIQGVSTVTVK
Type: biochemical
Procedure, shortened: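 Full-length His-tagged human USP28 (1-1077, Expi293f-expressed), […], with 25 nM Ub-Rh110 (<<Km) in pH 8.0 Tris buffer with BME, BGG, Triton X-100. 10-point dilutions (25 μM-1.3 nM), 45 min at room temperature, citric acid stop, fluorescence 485/535 nm; IC50 by 4-parameter fit.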
`Cc1nc2sc(C(=O)N[C@H]3COc4cc(N5CCNCC5)ccc4C3)c(N)c2s1` [Example 1-25, (R)-6-amino-2-methyl-N-(7-(piperazin-1-yl)chroman-3-yl)thieno[2,3-d]thiazole-5-carboxamide] was tested, and the IC50 was 0.001 to 0.05 µM. `Cc1nc2sc(C(=O)N[C@@H]3COc4cc(N5CCNCC5)ccc4C3)c(N)c2s1` [Example 1-26, (S)-6-amino-2-methyl-N-(7-(piperazin-1-yl)chroman-3-yl)thieno[2,3-d]thiazole-5-carboxamide] gave an IC50 of 0.2 to 2 µM. Molecule `Cc1ccc2c(N)c(C(=O)N[C@H]3COc4c(ccc(N5CCNCC5)c4F)C3)sc2n1` [Example 1-33, (R)-3-amino-N-(8-fluoro-7-(piperazin-1-yl)chroman-3-yl)-6-methylthieno[2,3-b]pyridine-2-carboxamide] has an IC50 of 0.001 to 0.05 µM. For `Cc1ccc2c(N)c(C(=O)N[C@@H]3COc4c(ccc(N5CCNCC5)c4F)C3)sc2n1` [Example 1-34, (S)-3-amino-N-(8-fluoro-7-(piperazin-1-yl)chroman-3-yl)-6-methylthieno[2,3-b]pyridine-2-carboxamide], the IC50 was 0.2 to 2 µM. `Cc1ccc2c(N)c(C(=O)N[C@H]3COc4cc(N5CCNCC5)c(F)cc4C3)sc2n1` [Example 1-35, (R)-3-amino-N-(6-fluoro-7-(piperazin-1-yl)chroman-3-yl)-6-methylthieno[2,3-b]pyridine-2-carboxamide] gave an IC50 of 0.001 to 0.05 µM. For `Cc1ccc2c(N)c(C(=O)N[C@@H]3COc4cc(N5CCNCC5)c(F)cc4C3)sc2n1` [Example 1-36, (S)-3-amino-N-(6-fluoro-7-(piperazin-1-yl)chroman-3-yl)-6-methylthieno[2,3-b]pyridine-2-carboxamide], the IC50 was > 2 µM. `Cc1ccc2c(N)c(C(=O)N[C@H]3COc4cc(N5CC6CNCC(C5)C6(F)F)ccc4C3)sc2n1` [Example 2-1, 3-Amino-N-((3R)-7-(9,9-difluoro-3,7-diazabicyclo[3.3.1]nonan-3-yl)chroman-3-yl)-6-methylthieno[2,3-b]pyridine-2-carboxamide] showed an IC50 of 0.001 to 0.05 µM. `Cc1ccc2c(N)c(C(=O)N[C@H]3COc4cc(N5CC6CC(C5)N6)ccc4C3)sc2n1` [Example 2-2, N-((3R)-7-(3,6-diazabicyclo[3.1.1]heptan-3-yl)chroman-3-yl)-3-amino-6-methylthieno[2,3-b]pyridine-2-carboxamide] gave an IC50 of 0.001 to 0.05 µM. For `Cc1ccc2c(N)c(C(=O)N[C@@H]3COc4cc(N5CC6CC(C5)N6)ccc4C3)sc2n1` [Example 2-3, N-((3S)-7-(3,6-diazabicyclo[3.1.1]heptan-3-yl)chroman-3-yl)-3-amino-6-methylthieno[2,3-b]pyridine-2-carboxamide], the IC50 was 0.2 to 2 µM. Work on `Cc1ccc2c(N)c(C(=O)N[C@H]3COc4cc(N5CCNC[C@@H]5C)ccc4C3)sc2n1` [Example 2-4, 3-amino-6-methyl-N-((R)-7-((S)-2-methylpiperazin-1-yl)chroman-3-yl)thieno[2,3-b]pyridine-2-carboxamide] yielded an IC50 of 0.001 to 0.05 µM. In the case of `Cc1ccc2c(N)c(C(=O)N[C@H]3COc4cc(N5CCNC[C@H]5C)ccc4C3)sc2n1` [Example 2-5, 3-amino-6-methyl-N-((R)-7-((R)-2-methylpiperazin-1-yl)chroman-3-yl)thieno[2,3-b]pyridine-2-carboxamide], the IC50 is reported as 0.001 to 0.05 µM. For `Cc1ccc2c(N)c(C(=O)N[C@H]3COc4cc(N5C6CCC5CNC6)ccc4C3)sc2n1` [Example 2-6, N-((3R)-7-(3,8-diazabicyclo[3.2.1]octan-8-yl)chroman-3-yl)-3-amino-6-methylthieno[2,3-b]pyridine-2-carboxamide], the IC50 was 0.001 to 0.05 µM. In the case of `Cc1ccc2c(N)c(C(=O)N[C@H]3COc4cc(N5CCCC56CNC6)ccc4C3)sc2n1` [Example 2-7, (R)-N-(7-(2,5-diazaspiro[3.4]octan-5-yl)chroman-3-yl)-3-amino-6-methylthieno[2,3-b]pyridine-2-carboxamide], the IC50 is reported as 0.001 to 0.05 µM. `Cc1ccc2c(N)c(C(=O)N[C@H]3COc4cc(N5CCN[C@@H](C)C5)ccc4C3)sc2n1` [Example 2-8, 3-amino-6-methyl-N-((R)-7-((S)-3-methylpiperazin-1-yl)chroman-3-yl)thieno[2,3-b]pyridine-2-carboxamide] gave an IC50 of 0.001 to 0.05 µM. With `Cc1ccc2c(N)c(C(=O)N[C@H]3COc4cc(N5CCN[C@H](C)C5)ccc4C3)sc2n1` [Example 2-9, 3-amino-6-methyl-N-((R)-7-((R)-3-methylpiperazin-1-yl)chroman-3-yl)thieno[2,3-b]pyridine-2-carboxamide] the IC50 was 0.001 to 0.05 µM. `Cc1ccc2c(N)c(C(=O)N[C@H]3COc4cc(N5CCNCC56COC6)ccc4C3)sc2n1` [Example 2-10] showed an IC50 of 0.001 to 0.05 µM. In the case of `Cc1cnc2c(N)c(C(=O)N[C@H]3COc4cc(N5CC6CC(C5)N6)ccc4C3)sc2n1` [Example 2-11, N-((3R)-7-(3,6-diazabicyclo[3.1.1]heptan-3-yl)chroman-3-yl)-7-amino-3-methylthieno[2,3-b]pyrazine-6-carboxamide], the IC50 is reported as 0.001 to 0.05 µM. Molecule `Cc1cnc2c(N)c(C(=O)N[C@H]3COc4cc(N5CC6COCC(C5)N6)ccc4C3)sc2n1` [Example 2-12, N-((3R)-7-(3-oxa-7,9-diazabicyclo[3.3.1]nonan-7-yl)chroman-3-yl)-7-amino-3-methylthieno[2,3-b]pyrazine-6-carboxamide] has an IC50 of 0.05 to 0.2 µM. With `Cc1cnc2c(N)c(C(=O)N[C@H]3COc4cc(N5CC6CNCC(C5)O6)ccc4C3)sc2n1` [Example 2-13, N-((3R)-7-(9-oxa-3,7-diazabicyclo[3.3.1]nonan-3-yl)chroman-3-yl)-7-amino-3-methylthieno[2,3-b]pyrazine-6-carboxamide] the IC50 was 0.001 to 0.05 µM. In the case of `Nc1c(C(=O)N[C@H]2COc3cc(N4CC5CC(C4)N5)ccc3C2)sc2nc(F)ccc12` [Example 2-14, N-((3R)-7-(3,6-diazabicyclo[3.1.1]heptan-3-yl)chroman-3-yl)-3-amino-6-fluorothieno[2,3-b]pyridine-2-carboxamide], the IC50 is reported as 0.001 to 0.05 µM. Molecule `Cc1nc2sc(C(=O)N[C@H]3COc4cc(N5CC6CC(C5)N6)ccc4C3)c(N)c2cc1F` [Example 2-15, N-((3R)-7-(3,6-diazabicyclo[3.1.1]heptan-3-yl)chroman-3-yl)-3-amino-5-fluoro-6-methylthieno[2,3-b]pyridine-2-carboxamide] has an IC50 of 0.001 to 0.05 µM. `COc1nc2sc(C(=O)N[C@H]3COc4cc(N5CCNCC5)ccc4C3)c(N)c2cc1F` [Example 2-16, (R)-3-amino-5-fluoro-6-methoxy-N-(7-(piperazin-1-yl)chroman-3-yl)thieno[2,3-b]pyridine-2-carboxamide] showed an IC50 of 0.05 to 0.2 µM. Work on `Cc1cc(C)c2c(N)c(C(=O)N[C@H]3COc4cc(N5CCNCC5)ccc4C3)sc2n1` [Example 2-17, (R)-3-amino-4,6-dimethyl-N-(7-(piperazin-1-yl)chroman-3-yl)thieno[2,3-b]pyridine-2-carboxamide] yielded an IC50 of 0.001 to 0.05 µM. `Cc1cc(C)c2c(N)c(C(=O)N[C@H]3COc4cc(N5CC6CC(C5)N6)ccc4C3)sc2n1` [Example 2-18, N-((3R)-7-(3,6-diazabicyclo[3.1.1]heptan-3-yl)chroman-3-yl)-3-amino-4,6-dimethylthieno[2,3-b]pyridine-2-carboxamide] was tested, and the IC50 was 0.001 to 0.05 µM. For `Cc1cc(C)c2c(N)c(C(=O)N[C@H]3COc4cc(N5CC6CNCC(C5)C6(F)F)ccc4C3)sc2n1` [Example 2-19, 3-amino-N-((3R)-7-(9,9-difluoro-3,7-diazabicyclo[3.3.1]nonan-3-yl)chroman-3-yl)-4,6-dimethylthieno[2,3-b]pyridine-2-carboxamide], the IC50 was 0.001 to 0.05 µM. `Cc1cc(C)c2c(N)c(C(=O)N[C@H]3COc4cc(N5CC6CNCC(C5)O6)ccc4C3)sc2n1` [Example 2-20, N-((3R)-7-(9-oxa-3,7-diazabicyclo[3.3.1]nonan-3-yl)chroman-3-yl)-3-amino-4,6-dimethylthieno[2,3-b]pyridine-2-carboxamide] was tested, and the IC50 was 0.001 to 0.05 µM. With `Cc1cc(C(F)(F)F)c2c(N)c(C(=O)N[C@H]3COc4cc(N5CC6CC(C5)N6)ccc4C3)sc2n1` [Example 2-21] the IC50 was 0.001 to 0.05 µM. With `Cc1cc(C(F)(F)F)c2c(N)c(C(=O)N[C@H]3COc4cc(N5CC6CNCC(C5)C6(F)F)ccc4C3)sc2n1` [Example 2-22, 3-amino-N-((3R)-7-(9,9-difluoro-3,7-diazabicyclo[3.3.1]nonan-3-yl)chroman-3-yl)-6-methyl-4-(trifluoromethyl)thieno[2,3-b]pyridine-2-carboxamide] the IC50 was 0.001 to 0.05 µM.

— patent publication US11524966B1 (Valo Early Discovery, Inc., priority 2017, dated 2022)
